Source: patent US12383515B2, “Compositions and methods of use of γ-ketoaldehyde scavengers for treating, preventing or improving nonalcoholic fatty liver disease (NAFLD), NASH, ALD or conditions related to the liver” (MTI Biotech, Inc., priority 2016, dated 2025)
Entries after “also recorded” stand apart in the source; their conditions may differ.

Tests used:
HepaRG cells = assay: Ethanol exposure of HepaRG hepatocytes after 2-HOBA pre-treatment; format: cell-based, human
mouse hepatocytes = assay: Oxidant mediated cell death induced by t-butylhydroperoxide; format: cell-based; settings: FIG. 3
From the text: There is considerable interest in identifying appropriate therapeutic interventions aimed at inhibiting the inflammatory processes and interrupting the immunogenic pathways associated with ALD.
This is a remarkable finding given the fact the pathogenesis of oxidative injury is quite complex and multifaceted. […] Obviously, the efficacy of 2-HOBA depends on its accumulation in target tissues, and this was recently supported by pharmacokinetic studies in an in vivo mouse model. […] The levels in the liver were about 10 times higher than in plasma.

C57/BL6J mice = assay: NIAAA ethanol model (10 days ethanol in LDLD + binge) of alcoholic liver injury; format: in vivo, mouse; settings: for Basophils / WBC / eosinophils, % of WBC / lymphocytes, % of WBC / monocytes, % of WBC: 0.5 g/L in LDLD; for AST: serum
Procedure: 2-HOBA and ethanol were concurrently administered to C57/BL6J mice to establish the efficacy of 2-HOBA in mitigating ethanol-mediated liver dysfunction (increased AST and ALT), reducing γ-KA formation, favorably altering immune responses and stimulating beneficial intracellular signaling pathways. […] 2-HOBA (0.5 g/L in Lieber-DeCarli liquid diet, LDLD) was administered to mice prior to ethanol treatment for 14 days to examine 2-HOBA efficacy in mitigating liver injury. Ethanol (5% v/v) was administered using the NIAAA model (10 days ethanol in LDLD+binge). […] White blood cell and lymphocyte cell counts were reduced while eosinophil and basophil counts were increased with ethanol relative to maltodextrin feeding (Table 1), consistent with other reports of alcoholic liver injury. Such responses were not observed in the presence of 2-HOBA.
An additional cohort of mice were administered a 14-day pretreatment of 2-HOBA (1.0 g/L) prior to administration of ethanol using the NIAAA model. Mice administered ethanol consumed less food and consequently weighed ˜2.5 g less than maltodextrin-fed controls at the end of study.

cyclooxygenase enzymes = settings: cited from earlier work
HepG2 cells = settings: varying concentrations of H2O2; cited from earlier work
[1] = 1, 3, and 10 g/L for 7 days; cited from earlier work
DIAMOND mice = assay: DIAMOND mouse model of NAFLD/NASH; format: in vivo; settings: 1 g/L in drinking water, Western diet
Procedure: Twelve 8-wk old male DIAMOND mice were placed on ad libitum high fat diet (Harlan—ENVIGO TD.88317) and water containing glucose (18.9% w/v) and fructose (23.1% w/v); all mice remained on this diet throughout the study protocol. […] The vehicle control group received water without 2-HOBA (with glucose and fructose). Body weight and food intake were measured weekly. At ˜23 wks of age, all animals underwent a glucose tolerance test (GTT) and MRI imaging to assess hepatic fat. For the GTT, animals were fasted for 12 hours and then glucose (2 g/kg bw of a 100 mg/mL glucose in sterile water) was administered by oral gavage. Blood was sampled at 0, 15, 30, 45, 60, 90, and 120 minutes after glucose administration and area under the curve was calculated. Animals were sacrificed at 24 wks of age (12 weeks of 2-HOBA or vehicle treatment). Tissues and serum were collected for analysis.
Serum levels of glucose, alanine transaminase, and aspartate transaminase were measured. […] Significance was set at α=0.05.

[2] = 2-HOBA + ETOH, 2-HOBA 1.0 g/L, 14-day pretreatment
[3] = 2-HOBA + MD, 2-HOBA 1.0 g/L, 14-day pretreatment
[4] = 1 g/L in drinking water, 6 weeks, vs vehicle

With `NCc1ccccc1O` [2-HOBA, 2-Hydroxybenzylamine] as the compound, how does the “reactive oxygen species formation” value (HepaRG cells; 24 hr pre-treatment 0, 250, 500 and 1000 μM, ethanol 0-200 mM, 24 hr, FIG. 4A) read?
The value was “did not affect”.

And the “cell death by ethanol” value (HepaRG cells; 24 hr pre-treatment 0, 250, 500 and 1000 μM, ethanol 0-200 mM, 24 hr, FIG. 4B)?
The value was “almost completely prevented”.

What about the “ALT levels in culture media” value (HepaRG cells; 24 hr pre-treatment 0, 250, 500 and 1000 μM, ethanol 0-200 mM, 24 hr, FIG. 5A) of the same compound?
The value was “near normalization”.

What about the “AST levels in culture media” value (HepaRG cells; 24 hr pre-treatment 0, 250, 500 and 1000 μM, ethanol 0-200 mM, 24 hr, FIG. 5B) of the same compound?
Its value is “near normalization”.

And the “intensity of ~18 kD anti-D11 cross-reactive (γ-KA adducted) band” value (HepaRG cells; pre-treatment 250 or 500 μM for 24 hr, ethanol, SDS-PAGE, D11 ScFv, FIG. 6)?
The value was “restored to levels observed in untreated controls”.

What about the “cell death induced by t-butylhydroperoxide (tBHP)” value (mouse hepatocytes) of the same compound?
The value was “almost completely prevented”.

What about the body weight (C57/BL6J mice; 0.5 g/L 2-HOBA in LDLD) of the same compound?
Its body weight is “not significantly impacted”.

And the food intake (C57/BL6J mice; 0.5 g/L 2-HOBA in LDLD)?
Its food intake is “not significantly impacted”.

What about the “increases in serum ALT” value (C57/BL6J mice; 2-HOBA 0.5 g/L) of the same compound?
Its value is “did not attenuate”.

And the “increases in serum AST” value (C57/BL6J mice; 2-HOBA 0.5 g/L)?
Its value is “did not attenuate”.

What about the “hepatic isofurans (IsoF)” value (C57/BL6J mice; 2-HOBA 1.0 g/L + ETOH, FIG. 8) of the same compound?
The value was “significant reductions; also recorded: ameliorated”.

What about the “hepatic isoprostanes (IsoP)” value (C57/BL6J mice; 2-HOBA 1.0 g/L + ETOH, FIG. 8) of the same compound?
Its value is “significant reductions; also recorded: ameliorated”.

And the kidney isoprostane levels (C57/BL6J mice; 2-HOBA 1.0 g/L + ETOH, P<0.05 versus Con+ETOH)?
Its kidney isoprostane levels is 1.3 ± 0.1 ng/g.

What about the Basophils (C57/BL6J mice; 2-HOBA + ETOH) of the same compound?
The Basophils was 1.27 ± 0.26^# x10^3/μl.

And the WBC (C57/BL6J mice; 2-HOBA + ETOH)?
The WBC was 3.11 ± 0.66 x10^3/μl.

And the eosinophils, % of WBC (C57/BL6J mice; 2-HOBA + ETOH)?
Its eosinophils, % of WBC is 2.71 ± 0.46%.

What about the lymphocytes, % of WBC (C57/BL6J mice; 2-HOBA + ETOH) of the same compound?
The lymphocytes, % of WBC was 50.4 ± 4.59%.

And the monocytes, % of WBC (C57/BL6J mice; 2-HOBA + ETOH)?
Its monocytes, % of WBC is 6.33 ± 1.11%.

And the ALT (C57/BL6J mice; 2-HOBA + ETOH, 2-HOBA 0.5 g/L)?
The ALT was 443.7 ± 66.2 U/L.

What about the AST (C57/BL6J mice; 2-HOBA + ETOH, 2-HOBA 0.5 g/L) of the same compound?
Its AST is 1725.0 ± 300.2 U/L.

And the “BUN (blood urea nitrogen)” value (C57/BL6J mice; 2-HOBA + ETOH, 2-HOBA 1.0 g/L)?
Its value is 22.6 ± 1.7 mg/dL.

And the “CRE (creatinine)” value (C57/BL6J mice; 2-HOBA + ETOH, 2-HOBA 1.0 g/L)?
Its value is 0.3 ± 0.04 mg/dL.

And the ALT (C57/BL6J mice; [2])?
Its ALT is 164.4±20.8 U/L.

And the AST (C57/BL6J mice; [2])?
The AST was 676.6±86.7 U/L.

And the WBC (C57/BL6J mice; 2-HOBA + MD (maltodextrin))?
The WBC was 6.08 ± 1.05 x10^3/μl.

What about the Basophils (C57/BL6J mice; 2-HOBA + MD) of the same compound?
The Basophils was 0.60 ± 0.14 x10^3/μl.

And the eosinophils, % of WBC (C57/BL6J mice; 2-HOBA + MD)?
Its eosinophils, % of WBC is 1.79 ± 0.4%.

What about the lymphocytes, % of WBC (C57/BL6J mice; 2-HOBA + MD) of the same compound?
The lymphocytes, % of WBC was 58.1 ± 5.45%.

What about the monocytes, % of WBC (C57/BL6J mice; 2-HOBA + MD) of the same compound?
Its monocytes, % of WBC is 6.66 ± 0.92%.

And the ALT (C57/BL6J mice; 2-HOBA + MD, 2-HOBA 0.5 g/L)?
The ALT was 54.3 ± 20.1 U/L.

What about the AST (C57/BL6J mice; 2-HOBA + MD, 2-HOBA 0.5 g/L) of the same compound?
Its AST is 566.5 ± 34.1 U/L.

What about the “BUN (blood urea nitrogen)” value (C57/BL6J mice; 2-HOBA + MD, 2-HOBA 1.0 g/L) of the same compound?
The value was 34.6 ± 2.9 mg/dL.

And the “CRE (creatinine)” value (C57/BL6J mice; 2-HOBA + MD, 2-HOBA 1.0 g/L)?
The value was 0.3 ± 0.05 mg/dL.

And the ALT (C57/BL6J mice; [3])?
Its ALT is 127.5 ± 78.59 U/L.

And the AST (C57/BL6J mice; [3])?
Its AST is 693.6 ± 173.1 U/L.

And the hepatic triglyceride content (C57/BL6J mice; ETOH-challenged mice pre-treated with 2-HOBA 1.0 g/L)?
The hepatic triglyceride content was “trended to be lower”.

What about the “ethanol responses: reduced white blood cell and lymphocyte counts, increased eosinophil and basophil counts” value (C57/BL6J mice; ethanol relative to maltodextrin feeding, 0.5 g/L 2-HOBA) of the same compound?
The value was “not observed”.

And the kidney isoprostane formation (C57/BL6J mice; pre-treatment 14 days at 1.0 g/L)?
Its kidney isoprostane formation is “decreased”.

What about the “liver injury (elevated γ-KAs and liver function enzymes) upon ethanol exposure” value (C57/BL6J mice; pre-treatment with 2-HOBA 1.0 mg/ml (1.0 g/L), 14 days) of the same compound?
Its value is “significantly reduces; also recorded: reduced”.

And the “inhibition of cyclooxygenase enzymes” value (cyclooxygenase enzymes)?
The value was “does not inhibit”.

What about the ALT (STAM mice; [4]) of the same compound?
The ALT was “trending towards reduction”.

And the insulin (STAM mice; [4])?
The insulin was “trending towards reduction”.

What about the lipids (STAM mice; [4]) of the same compound?
The lipids was “trending towards reduction”.

And the “liver to body weight ratios” value (STAM mice; [4])?
The value was “significantly reduced”.

What about the liver weight (STAM mice; [4]) of the same compound?
The liver weight was “significantly reduced”.

What about the serum isoprostanes (STAM mice; [4]) of the same compound?
The serum isoprostanes was “significantly reduced”.

And the NAFLD severity (STAM mice; FIG. 12)?
Its NAFLD severity is “reduce”.

And the NALP1 (STAM mice; liver)?
The NALP1 was “decrease”.

What about the “expression of pyruvate dehydrogenase kinase 4 (pdk4)” value (STAM mice; liver) of the same compound?
Its value is “significantly decreased”.

And the “signaling through FOXO1” value (STAM mice; liver immunoblot)?
Its value is “without significantly altering”.

And the AKT phosphorylation (STAM mice; liver immunoblot, FIG. 13)?
The AKT phosphorylation was “dramatically increased”.

What about the GSK30 phosphorylation (STAM mice; liver immunoblot, FIG. 13) of the same compound?
The GSK30 phosphorylation was “dramatically increased”.

What about the “signaling through ERK” value (STAM mice; liver immunoblot, FIG. 13) of the same compound?
The value was “without significantly altering”.

And the “signaling through mTOR” value (STAM mice; liver immunoblot, FIG. 13)?
The value was “without significantly altering”.

What about the “markers of hepatic insulin sensitivity” value (STAM mice; mouse, in vivo) of the same compound?
The value was “restores”.

And the NLRP1-inflammasome activation (STAM mice; oral 2-HOBA administration)?
The NLRP1-inflammasome activation was “blocked”.

And the “oxidant mediated cell death” value (HepG2 cells)?
The value was “protective effect”.

And the “levels in the liver relative to plasma” value [1]?
The value was “about 10 times”.

What about the “liver levels of 2-HOBA” value [1] of the same compound?
Its value is “dose-dependent increases”.

And the “plasma levels of 2-HOBA” value [1]?
Its value is “dose-dependent increases”.

And the liver weight (DIAMOND mice; FIGS. 15-16)?
The liver weight was “trend for a reduction”.

What about the “liver enzyme ALT” value (DIAMOND mice; serum, FIG. 16H) of the same compound?
Its value is “significant reduction”.

What about the “liver enzyme AST” value (DIAMOND mice; serum, FIG. 16I) of the same compound?
Its value is “significant reduction”.
